Data from patent US20080267948A1, “Croos-B Structure Binding Compounds” (priority 2005, published 2008).
“Also recorded” adds a separate entry of the source. Where two headings read alike, the source gives them in different places.

Experiments:
[1] = target: T1, Hb-AGE (glucose-6-phosphate modified human haemoglobin) (Homo sapiens, UniProt P68871+P69905); assay: ELISA binding of tPA to immobilized Hb-AGE, compounds co-incubated with tPA; details: compound mixed with tPA, control without compound = 100
T1 construct: purchased Sigma-Aldrich H7379
T1 sequence (P69905 2-142 limits assumed): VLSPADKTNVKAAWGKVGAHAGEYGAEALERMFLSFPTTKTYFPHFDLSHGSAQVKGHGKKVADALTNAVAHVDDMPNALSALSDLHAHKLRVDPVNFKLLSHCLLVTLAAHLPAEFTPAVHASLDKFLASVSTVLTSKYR
T1 sequence (P68871 2-147 limits assumed): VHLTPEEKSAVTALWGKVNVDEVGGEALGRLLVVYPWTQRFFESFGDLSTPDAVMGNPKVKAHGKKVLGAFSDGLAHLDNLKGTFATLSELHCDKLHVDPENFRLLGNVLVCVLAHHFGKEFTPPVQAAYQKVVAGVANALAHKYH
Procedure: The small compound library is depicted in Tables 4-5. […] Binding experiments were performed in single wells per compound, in a duplicate experiment. Binding data obtained with this duplicate experiment was averaged.
• 1. […] Coat buffer in control wells. • 2. wash three times with wash buffer • 3. Block all wells with 300 μl 0.5*recommended concentration Roche blocking reagent for 30 minutes at room temperature, with agitation • 4. wash twice • 5. […] Incubate for 30 minutes at room temperature, with agitation • 7. wash five times with TBS/0.1% Tween20 • 8. […] Incubate for 30 minutes at room temperature, with agitation • 10. wash five times with TBS/0.1% Tween20 • 11. Fill wells with 3000× diluted horse raddish peroxidase-labeled polyclonal rabbit anti-mouse antibody (RAMPO, DAKOCytomation) • 12. Incubate for 20 minutes at room temperature, with agitation • 13. Wash five times with TBS/0.1% Tween20 • 14. Wash twice with PBS • 15. Stain with 100 μl TMB, stop with 50 μl 10% H2SO4 • 16. Read absorbance at 450 nm

[2] = information found on the www, search completed Spring 2006, cited from earlier work
[3] = target: T2, Hb-AGE (Homo sapiens, UniProt P68871+P69905); assay: Binding of Hb-AGE from solution to immobilized small compounds
T2 construct: purchased Sigma-Aldrich H7379
T2 sequence (P69905 2-142 limits assumed): as the sequence (P69905 2-142 limits assumed) above
T2 sequence (P68871 2-147 limits assumed): as the sequence (P68871 2-147 limits assumed) above
Procedure: (§1) To test the ability of the twelve selected compounds (see Table 7) to bind to misfolded proteins, […] Greiner Microlon high binding plates, Nunc amino Immobilizer plates and Nunc Maxisorp plates. Compounds were coated in 100 mM NaHCO3 pH 9.6, 50 μl/well, 1 h at room temperature with agitation. As a control, wells were coated with buffer only. After blocking of the plates, wells were overlayed with solutions of 0.1/1/10 μg/ml Hb-AGE or 10/100 μg/ml Aβ, in binding buffer (PBS/0.1% Tween20). After washing, binding of Hb-AGE was assessed by overlaying wells with 1 μg/ml hybridoma antibody 4B5, which binds to glycations(^2), followed by RAMPO. Binding of Aβ was visualized using 500× diluted anti-Aβ antibodies (mouse antibody beta-amyloid Clone 6F/3D #M0872, lot 00003503, DAKOCytomation; β-amyloid (H-43) SC-9129, 200 μg/ml rabbit polyclonal IgG, Santa Cruz Biotechnology) and RAMPO/SWARPO in a 1:1 ratio. Finally, wells were overlayed with OPD/H2O2 solution, and H2SO4, before absorbance readings at 490 nm.

[4] = target: T3, tPA/plasminogen (Homo sapiens, UniProt P00750); assay: tPA/plasminogen activation by OVA heated in the presence of compounds (substrate PNAPEP1751); format: biochemical; details: 25 μg/ml OVA, 25 μg/ml compound, […] DMSO
T3 construct: purchased Boehringer Ingelheim Actilyse
T3 sequence (P00750 36-562): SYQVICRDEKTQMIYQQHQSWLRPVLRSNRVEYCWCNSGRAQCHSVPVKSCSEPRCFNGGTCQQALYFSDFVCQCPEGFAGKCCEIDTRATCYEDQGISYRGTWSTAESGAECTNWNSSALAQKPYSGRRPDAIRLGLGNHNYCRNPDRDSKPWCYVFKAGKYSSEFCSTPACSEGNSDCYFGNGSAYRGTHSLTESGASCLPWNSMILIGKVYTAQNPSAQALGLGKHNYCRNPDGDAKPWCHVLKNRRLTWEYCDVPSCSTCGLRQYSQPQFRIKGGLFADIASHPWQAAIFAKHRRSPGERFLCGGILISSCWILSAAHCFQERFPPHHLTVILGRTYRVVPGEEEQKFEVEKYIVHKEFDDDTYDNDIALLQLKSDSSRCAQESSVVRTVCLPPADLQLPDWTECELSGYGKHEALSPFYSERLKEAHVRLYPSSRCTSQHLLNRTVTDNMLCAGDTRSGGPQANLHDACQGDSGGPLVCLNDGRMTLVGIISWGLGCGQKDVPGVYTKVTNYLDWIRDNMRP
Procedure, shortened: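 Ovalbumin heated alone in PBS/1% DMSO (positive control) or with compounds at 1 mg/ml, then used 40-fold diluted in a tPA/plasminogen activation assay; buffer without OVA as negative control. Chromogenic substrate conversion read at 405 nm, with compound interference at 405 nm checked; signals related to control.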

[5] = target: T4, Aβ (Homo sapiens, UniProt P05067, E693Q); assay: Binding of Aβ from solution to immobilized small compounds; details: Aβ 100 μg/ml
T4 construct: Lyophilized human amyloid-β(1-40) with E22Q mutation ‘Dutch type’; purchased Peptide facility, Dutch Cancer Institute, Amsterdam; host or cells: synthetic peptide
Procedure: as §1

[6] = target: T5, factor XII (Homo sapiens, UniProt P00748); assay: Factor XII activation assay (chromogenic, prekallikrein, Chromozyme-PK); format: biochemical; set-up: purchased Calbiochem; details: for activation of factor XII by compound alone: without protein cofactor, ellagic acid 50 μg/ml
T5 sequence (P00748 20-615): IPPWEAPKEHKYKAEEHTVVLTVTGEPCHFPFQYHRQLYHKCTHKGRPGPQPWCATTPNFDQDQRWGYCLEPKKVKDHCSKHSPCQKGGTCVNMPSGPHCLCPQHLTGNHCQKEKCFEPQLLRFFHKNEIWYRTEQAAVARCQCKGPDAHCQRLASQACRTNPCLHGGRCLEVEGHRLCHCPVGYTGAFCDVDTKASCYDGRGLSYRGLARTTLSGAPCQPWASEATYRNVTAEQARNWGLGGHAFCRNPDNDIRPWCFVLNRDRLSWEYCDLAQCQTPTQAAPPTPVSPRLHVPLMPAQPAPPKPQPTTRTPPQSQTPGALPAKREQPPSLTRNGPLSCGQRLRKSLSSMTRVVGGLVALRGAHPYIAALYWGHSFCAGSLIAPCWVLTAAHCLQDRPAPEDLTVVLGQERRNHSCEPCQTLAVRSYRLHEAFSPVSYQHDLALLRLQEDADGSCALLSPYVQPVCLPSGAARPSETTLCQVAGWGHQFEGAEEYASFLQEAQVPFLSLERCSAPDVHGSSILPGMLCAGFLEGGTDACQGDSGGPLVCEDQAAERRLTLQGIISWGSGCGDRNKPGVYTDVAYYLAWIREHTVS
Procedure: For this purpose, in a reaction volume of 60 μl the following components were mixed: 10 μl of 300 μg/ml ellagic acid solution or control buffer, 10 μl of 750 μg/ml I or control buffer, 20 μl of a solution comprising [HEPES-buffered saline, 1.96 μg/ml prekallikrein (Calbiochem), 10 mM ZnCl2, 2.13 μg/ml high molecular weight kininogen (Calbiochem); ‘PK mix’ ], 10 μl Chromozyme-PK (Roche, 1 mg/ml aliquot) and 10 μl of a solution comprising 1 mM ZnCl2, HEPES-buffered saline and 4.76 μg/ml factor XII (Calbiochem); ‘FXII mix’. Nunc Immobilizer plates were blocked with PBS with 1% Tween20 for 1 hour at room temperature under constant motion. All reagents were kept on ice throughout preparation of the experiment. The factor XII activating capacity of ellagic acid (Sigma, E-2250, St. Louis, Mo., USA) or I (Cealb, Sanquin, Amsterdam, The Netherlands) alone, and combination thereof was determined in duplicate. After adding 10 μL of I solution or buffer and 10 μl of ellagic acid solution or buffer to the wells, 20 μL of PK mix was added to each well. Ten μL of kallikrein substrate Chromozyme PK was added to each well, followed by 10 μL of freshly prepared FXII mix. Final I and ellagic acid concentrations are 125 μg/ml and 50 μg/ml. Absorbance was measured at 405 nm at 37° C. for 3 hours with brief shaking every minute.

Row | Structure (SMILES) | % tPA binding to Hb-AGE (co-incubation) [1] | Use or activity in vitro/in vivo ([2]; thalicmidine) | Signal (a.u.) ([3]; Nunc Maxisorp, coat 100 μg/ml, Hb-AGE 0.1 μg/ml) | influence on tPA/plasminogen activation by OVA pre-heated in the presence of compound [4] | Signal (a.u.) ([5]; Nunc Maxisorp, coat 100 μg/ml) | activation of factor XII/kallikrein generation, compound combined with human serum albumin ([6]; 50 μg/ml ellagic acid with 125 μg/ml HSA, hydrate) | Activation of factor XII (summary) ([6]; summary Table 9) | activation of factor XII by compound alone ([6]; listed as Ellagic acid, hydrate) | activation of factor XII by compound alone ([6]; listed as ellagic acid, hydrate) | Signal (a.u.) ([3]; Greiner Microlon, coat 100 μg/ml, Hb-AGE 10 μg/ml) | Signal (a.u.) ([3]; Nunc Maxisorp, coat 100 μg/ml, Hb-AGE 10 μg/ml) | Use or activity in vitro/in vivo [2] | Signal (a.u.) ([5]; Nunc amino Immobilizer, coat 1 μg/ml) | Signal (a.u.) ([3]; Nunc Maxisorp, coat 100 μg/ml, Hb-AGE 1 μg/ml) | Signal (a.u.) ([3]; Nunc amino Immobilizer, coat 1 μg/ml, Hb-AGE 10 μg/ml)
1 | COc1cc2c(cc1OC)-c1c(O)c(OC)cc3c1[C@H](C2)N(C)CC3 [compound 201, Thaliporphine, thalicmidine] | 30% | increased survival rate of LPS-treated mice; also recorded: suppression of TNFα, NO. and O^2− production; also recorded: stimulated splenocyte proliferation induced by LPS; also recorded: potent vasoconstrictor | 0.55 a.u. |  |  |  |  |  |  |  |  |  |  |  | 
2 | O=c1oc2c(O)c(O)cc3c(=O)oc4c(O)c(O)cc1c4c23 [compound 117, Ellagic acid hydrate] |  |  |  | Inhibition of tPA/plasminogen activation by OVA pre-heated | 0.054 a.u. | potent activator of kallikrein generation; also recorded: kallikrein substrate Chromozyme-PK conversion is only observed when in addition 125 μg/ml HSA is included in the assay | Activation of factor XII | factor XII/kallikrein activity comparable to control buffer | poor activators of factor XII | 0.13 a.u. | 0.15 a.u. |  |  |  | 
3 | COc1cc2c(cc1O)C[C@H]1c3c(cc(OC)c(O)c3-2)CCN1C [compound 202, Isoboldine] | 250% |  |  |  | 0.11 a.u. |  |  |  |  |  |  | potency to suppress LPS-induced proliferation in vitro; also recorded: potent antiplasmodial activity | 0.08 a.u. | 0.46 a.u. | 0.20 a.u.
